Assay results reported in patent US20220289732A1, “HETEROCYCLIC WDR5 INHIBITORS AS ANTI-CANCER COMPOUNDS” (NOVARTIS AG, priority 2019, published 2022).

Columns and labels:
[1] = target: WDR5 (Homo sapiens, UniProt P61964); assay: WDR5 HTRF binding assay; settings: read-out: (a) WDR5 HTRF Pep Val v.1[Inhibitor/IC50]Qualified AC50
How it was run: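 6 nM WDR5 and 20 nM biotin-MLL1 WIN peptide (3762-3773) were incubated with compound (12-point, 3-fold dilutions) in pH 7.5 Hepes/NaCl/DTT buffer for 20 min at rt. Streptavidin-APC plus anti-His-Eu were then added for 1 hr, with HTRF read at 665/615. IC50 was fit from control-normalized activity; the counter assay used 15 nM biotin-PEG-His peptide.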

[2] = target: wild type MLL1 four-member complex (MLL1-4C) (Homo sapiens, UniProt P61964); assay: MLL1 LC-MS assay (SAH production); assay type: biochemical; settings: read-out: (b) MLL LCMS Peptide Val.v.1 Qualified AC50
How it was run: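 MLL1-4C (30 nM final) was preincubated 20 min with compound (3-fold dilutions, 8 or 12 points) and SAM in Tris-HCl pH 8.0 buffer. H3K4me0 peptide (histone H3[1-21]-biotin) was then added, giving final 2.5 μM SAM and 10 μM substrate, and reactions ran 120 min at rt. After TFA/d4-SAH quench, SAH was quantified by LC-MS/MS and IC50 fitted from control-normalised activity.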

[3] = system: MV4-11 cells; assay: MV4-11 6-day cell growth CTG (CellTiter-Glo) assay; assay type: cell-based; settings: Homo sapiens, MV4-11, 144 h, 6 days, read-out: (c) MLL/WDR5 cell proliferation assay//MLL/WDR5 proliferation MV4:11 Qualified AC50
How it was run: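 Exponentially growing MV4-11 AML cells (RPMI 1640, 10% FBS) seeded at 300 cells/well with 12-point 1:3 compound dilutions, top final concentration 50 μM. Viability read by CellTiter-Glo luminescence after 6 days at 37° C; % inhibition vs DMSO-only wells fitted to dose-response for IC50.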

Row | Structure (SMILES) | IC50 [1] | AC50 [2] | AC50 [3]
1 | CCOc1cc(C(C)N2CCc3c(cc(CCN(C)CC)cc3C(O)C(C)C(F)(F)F)C2=O)ncc1C#N (stereo not drawn) [Example 258, 4-ethoxy-6-(1-(7-(2-(ethyl(methyl)amino)ethyl)-1-oxo-5-(3,3,3-trifluoro-1-hydroxy-2-methylpropyl)-3,4-dihydroisoquinolin-2(1H)-yl)ethyl)nicotinonitrile] | < 10 nM | 10 to 1000 nM | 10 to 1000 nM
2 | CCOc1cc(C(C)N2CCc3c(cc(CCN(C)CC)cc3C(O)C(F)(F)F)C2=O)ncc1C#N (stereo not drawn) [Example 259, 4-ethoxy-6-(1-(7-(2-(ethyl(methyl)amino)ethyl)-1-oxo-5-(2,2,2-trifluoro-1-hydroxyethyl)-3,4-dihydroisoquinolin-2(1H)-yl)ethyl)nicotinonitrile] | < 10 nM | 10 to 1000 nM | 10 to 1000 nM
3 | CCOc1cc(CN2CCc3c(cc(Cn4ccnc4C)cc3-c3cn(C)nc3C)C2=O)ncc1C#N [Example 263, 6-((5-(1,3-Dimethyl-1H-pyrazol-4-yl)-7-((2-methyl-1H-imidazol-1-yl)methyl)-1-oxo-3,4-dihydroisoquinolin-2(1H)-yl)methyl)-4-ethoxynicotinonitrile] | 10 to 1000 nM | 10 to 1000 nM | 10 to 1000 nM
4 | CCOc1cc([C@H](C)N2CCc3c(cc(Cn4ccnc4C)cc3-c3c[nH]c(=O)cc3C(F)(F)F)C2=O)ncc1C#N [Example 269, (S)-4-Ethoxy-6-(1-(7-((2-methyl-1H-imidazol-1-yl)methyl)-1-oxo-5-(6-oxo-4-(trifluoromethyl)-1,6-dihydropyridin-3-yl)-3,4-dihydroisoquinolin-2(1H)-yl)ethyl)nicotinonitrile] | < 10 nM | 10 to 1000 nM | 10 to 1000 nM
5 | CCOc1cc([C@H](C)N2CCc3c(cc(Cn4cc(C)nc4C)cc3-c3cn(CCO)nc3C)C2=O)ncc1C#N [Example 272] | < 10 nM | 10 to 1000 nM | 10 to 1000 nM
6 | CCOc1cc([C@H](C)N2CCc3c(cc(Cn4cc(C)nc4C)cc3-c3cn(C)nc3C)C2=O)ncc1C#N [Example 273] | < 10 nM | 10 to 1000 nM | 10 to 1000 nM
7 | CCOc1cc([C@H](C)N2CCc3c(cc(Cn4cc(C)nc4C)cc3-c3cn(C)c(=O)cc3C)C2=O)ncc1C#N [Example 274] | < 10 nM | 10 to 1000 nM | 10 to 1000 nM
8 | CCOc1cc([C@H](C)N2CCc3c(cc(Cn4ccnc4C)cc3-c3cn(C)c(=O)cc3C)C2=O)ncc1C#N [Example 275] | < 10 nM | 10 to 1000 nM | 10 to 1000 nM
9 | CCOc1cc([C@H](C)N2CCc3c(cc(Cn4cnc(C)c4)cc3-c3cn(C)nc3C)C2=O)ncc1C#N [Example 276] | < 10 nM | 10 to 1000 nM | 10 to 1000 nM
10 | CCOc1cc([C@H](C)N2CCc3c(cc(Cn4ccnc4C)cc3-c3cn(C)c(=O)cc3C)C2=O)ncc1F [Example 281] | < 10 nM | 10 to 1000 nM | 10 to 1000 nM
11 | CCOc1cc([C@H](C)N2CCc3c(cc(Cn4ccnc4C)cc3-c3cn(C)c(=O)c(F)c3C)C2=O)ncc1F [Example 283] | < 10 nM | 10 to 1000 nM | 10 to 1000 nM
12 | CCOc1cc([C@H](C)N2CCc3c(cc(Cn4ccnc4C)cc3-c3cn(S(C)(=O)=O)nc3C)C2=O)ncc1C#N [Example 284] | < 10 nM | 10 to 1000 nM | 10 to 1000 nM
13 | CCOc1cc([C@H](C)N2CCc3c(cc(Cn4ccnc4C)cc3-c3cn(C)c(=O)cc3C(F)(F)F)C2=O)ncc1C#N [Example 288] | < 10 nM | 10 to 1000 nM | < 10 nM
14 | CCOc1cc([C@H](C)N2CCc3c(cc(Cn4cncc4C)cc3-c3cn(C)nc3C)C2=O)ncc1C#N [Example 289] | < 10 nM | 10 to 1000 nM | 1000 to 25000 nM
15 | CCOc1cc([C@H](C)N2CCc3c(cc(Cn4ccnc4C)cc3-c3cn(C)c(=O)cc3Cl)C2=O)ncc1C#N [Example 292] | 10 to 1000 nM | 10 to 1000 nM | 10 to 1000 nM
16 | CCOc1cc([C@H](C)N2CCc3c(CN(C)C)cc(Cn4ccnc4C)cc3C2=O)ncc1C#N [Example 295] | 10 to 1000 nM | 10 to 1000 nM | 1000 to 25000 nM
17 | COc1cc([C@H](C)N2CCc3c(cc(Cn4ccnc4C)cc3-c3nn(C)c(=O)cc3C(F)(F)F)C2=O)ncc1C#N [Example 296] | 10 to 1000 nM | 10 to 1000 nM | 10 to 1000 nM
18 | CCOc1cc(CN2CCc3c(cc(Cn4ccnc4C)cc3-c3cn(C)c(=O)cc3C(F)(F)F)C2=O)ncc1C#N [Example 297] | < 10 nM | 10 to 1000 nM | < 10 nM
19 | CCOc1cc(CN2CCc3c(cc(Cn4ccnc4C)cc3-n3nc(C)nc3C(F)F)C2=O)ncc1C#N [Example 298] | < 10 nM | 10 to 1000 nM | 10 to 1000 nM
20 | CCOc1cc(CN2CCc3c(cc(Cn4ccnc4C)cc3-c3cn(C)c(=O)cc3C(F)F)C2=O)ncc1C#N [Example 299] | < 10 nM | 10 to 1000 nM | 10 to 1000 nM
21 | CCOc1cc(C(C)N2CCc3c(cc(CCN(C)CC)cc3C(C)(O)C(F)(F)F)C2=O)ncc1C#N (stereo not drawn) [Example 304, 4-ethoxy-6-(1-(7-(2-(ethyl(methyl)amino)ethyl)-1-oxo-5-(1,1,1-trifluoro-2-hydroxypropan-2-yl)-3,4-dihydroisoquinolin-2(1H)-yl)ethyl)nicotinonitrile] | 10 to 1000 nM | 10 to 1000 nM | 1000 to 25000 nM
22 | CCOc1cc(CN2CCc3c(cc(CCN(C)CC)cc3C(OC)C(F)(F)F)C2=O)ncc1C#N (stereo not drawn) [Example 305, 4-ethoxy-6-((7-(2-(ethyl(methyl)amino)ethyl)-1-oxo-5-(2,2,2-trifluoro-1-methoxyethyl)-3,4-dihydroisoquinolin-2(1H)-yl)methyl)nicotinonitrile] | 10 to 1000 nM | 10 to 1000 nM | 10 to 1000 nM
23 | CCOc1cc(C(C)N2CCc3c(cc(CCN(C)CC)cc3C(O)C(C)(C)C)C2=O)ncc1C#N (stereo not drawn) [compound 257] | 10 to 1000 nM | 10 to 1000 nM | 10 to 1000 nM
24 | CCOc1cc(C(C)N2CCc3c(cc(CCN(C)CC)cc3C(O)C(F)(F)F)C2=O)ncc1F (stereo not drawn) [compound 260] | 10 to 1000 nM | 10 to 1000 nM | 10 to 1000 nM

Further lines, with some results ahead:

Row | IC50 [1] | AC50 [2] | Structure (SMILES) | AC50 [3]
25 | < 10 nM | 10 to 1000 nM | CCOc1cc([C@H](C)N2CCc3c(cc(Cn4ccnc4C)cc3-c3cn(CCO)nc3C)C2=O)ncc1C#N [Example 271] | 10 to 1000 nM
26 | 10 to 1000 nM | 10 to 1000 nM | CCOc1cc([C@H](C)N2CCc3c(cc(Cn4ccnc4C)cc3-c3nn(C)cc3C)C2=O)ncc1C#N [Example 277] | 10 to 1000 nM
27 | < 10 nM | 10 to 1000 nM | CCOc1cc([C@H](C)N2CCc3c(cc(Cn4ccnc4C)cc3-c3ccnn3C)C2=O)ncc1C#N [Example 279] | 10 to 1000 nM
28 | < 10 nM | 10 to 1000 nM | CCOc1cc([C@H](C)N2CCc3c(cc(Cn4ccnc4C)cc3-c3cc(C)nn3C)C2=O)ncc1C#N [Example 280] | < 10 nM
29 | < 10 nM | 10 to 1000 nM | CCOc1cc([C@H](C)N2CCc3c(cc(Cn4ccnc4C)cc3-c3cc(C(F)F)cnc3C)C2=O)ncc1C#N [Example 282] | 10 to 1000 nM
30 | < 10 nM | 10 to 1000 nM | CCOc1cc([C@H](C)N2CCc3c(cc(Cn4ccnc4C)cc3-c3cn(C)c(=O)cc3C(F)F)C2=O)ncc1C#N [Example 285] | < 10 nM
31 | < 10 nM | 10 to 1000 nM | CCOc1cc([C@H](C)N2CCc3c(cc(Cn4ccnc4C)cc3-c3cn(C(F)F)nc3C)C2=O)ncc1C#N [Example 286] | < 10 nM
32 | < 10 nM | 10 to 1000 nM | CCOc1cc([C@H](C)N2CCc3c(cc(Cn4ccnc4C)cc3-c3cn(C)c(=O)c(F)c3C)C2=O)ncc1C#N [Example 287] | 10 to 1000 nM
33 | < 10 nM | 10 to 1000 nM | CCOc1cc([C@H](C)N2CCc3c(cc(Cn4ccnc4C)cc3-c3nn(C)nc3C)C2=O)ncc1C#N [Example 290] | 10 to 1000 nM
34 | 10 to 1000 nM | 10 to 1000 nM | CCOc1cc([C@H](C)N2CCc3c(cc(Cn4ccnc4C)cc3-c3nn(C)c(=O)cc3C(F)(F)F)C2=O)ncc1C#N [Example 291] | 10 to 1000 nM
35 | 10 to 1000 nM | 10 to 1000 nM | CCOc1cc([C@H](C)N2CCc3c(cc(Cn4ccnc4C)cc3-c3nc(C(F)F)nn3C)C2=O)ncc1C#N [Example 293] | 10 to 1000 nM
36 | 10 to 1000 nM | 10 to 1000 nM | CCOc1cc([C@H](C)N2CCc3c(cc(Cn4ccnc4C)cc3-n3nc(C)nc3C(F)F)C2=O)ncc1C#N [Example 294] | 10 to 1000 nM
